Five compounds from patent US9315829B2, “Methods for intracellular delivery of nucleic acids” (UNIVERSITE PARIS DESCARTES, priority 2010, dated 2016) can be followed below.

One assay deals with ciliary muscle. Put plainly: Luciferase expression in aqueous humor after transfection of the ciliary muscle with naked pGLuc (Example 5). To be noted: for Luciferase (cps) Mean ± sem, level of expression in aqueous humor: pre-treatment 20 mg/ml (10 μl) 45 min before 15 μg pGLuc, day 7, background 99.3 ± 1.5, water 103.5 ± 3.2. The class given is in vivo, rat. The protocol:
FIG. 6: Illustrates the intracellular delivery of naked plasmids to a smooth muscle, the ciliary muscle, and subsequent gene expression in ocular media. Intramuscular pre-injection of triamcinolone acetonide (TA) or anecortave acetate (AA) at 20 mg/ml (10 μl) was carried out 45 min before intramuscular injection of the naked plasmid pGLuc (15 μg in 10 μl in NaCl 0.45%). No transfection or water instead of corticosteroid was used as control. Luminescence is expressed in counts/s (cps). The results are expressed as the mean±sem of 4 to 6 independent experiments.
To reach the ciliary muscle located below the sclera posterior to the limbus, the intra ciliary muscle injection was carried out through a tunneled corneal incision. When the needle had crossed the limbus, it was inserted slightly deeper for a distance of 1 mm and the solutions were injected.
Rats receiving injection of pGLuc in the ciliary muscle were sacrificed on day 7 after treatment. Intraocular fluids were collected on enucleated eyes, clarified by centrifugation and the supernatants stored at −20° C. until tested.
(§1) The luciferase activity was assessed on 10 μl of sample (tissue lysate supernatant or ocular fluid) placed in a white 96 wells plate.
(§2) The detector was a Wallac Victor luminometer (EG&G Wallac, Evry, France) which adds 50 μl of luciferase assay substrate or Gaussia luciferase assay substrate (Promega) to the sample (tissue lysate supernatant or ocular fluid respectively) and integrates the light produced by the sample during 10 s. Results are given for the whole sample in counts per second (cps) or in cps/ml/mg of protein.
Fifteen μg of naked pGLuc in 10 μl in NaCl 0.45% was injected in the ciliary muscle of one eye of anaesthetized rats (the contra lateral eye was used as control).
The plasmid injection was preceded 45 min before by intramuscular injection of 10 μl of triamcinolone acetonide (TA, 20 mg/ml) or anecortave acetate (AA, 20 mg/ml), a synthetic corticosteroid.
No injection and pre-injection with water were performed as controls.

For another assay, the system named is tibialis anterior muscle. Put plainly: Luciferase expression in tibialis anterior muscle after injection of naked pVAX2-Luc (Example 6). The conditions noted are these: water control 6.749. It counts as in vivo, mouse.
Another assay concerns RPE-choroid complex. Put plainly: IVT injection of naked pVAX2-Luc followed by gas injection and/or ET, luciferase in RPE-choroid complex (Example 1). The class given is in vivo, rat. To be noted: IVT pre-injection 30 min before plasmid, Indocyanin Green 2.5 mg/ml, Polysorbate 80 0.2 mg/ml. The protocol: (§3) FIG. 2: Illustrates the intracellular delivery of naked plasmids and gene expression in the neuroretina (FIG. 2A) and the RPE-choroid complex (FIG. 2B) of IVT pre-injection of 10 μl of the corticosteroid pharmaceutical specialty KENACORT® at 20 mg/ml (triamcinolone acetonide (TA) as active agent and polysorbate 80 as excipient), Indocyanine Green at 2.5 mg/ml or Polysorbate 80 at 0.2 mg/ml 30 min before IVT injection of the plasmid pVAX2-Luc (30 μg in 10 μl in NaCl 0.45%), followed by gas injection or ET application [8×(80V; 20 ms; 5 Hz)] or combination of both immediately upon IVT injection of the plasmid. Luminescence is expressed in counts/s (cps). The results are expressed as the mean±sem of 4 independent experiments.
Rats receiving intravitreal injection of pVAX2-luc were sacrificed on day 7 after treatment. The eyes were enucleated and dissected under an operating microscope, the neuroretina and RPE/choroid complex removed, snap frozen in liquid nitrogen and kept at −80° C. until tested.
Tissue samples were then homogenized in 0.3 ml (rat neuroretina and RPE/choroid complex) or 1.0 ml (mouse tibialis anterior muscle) of cell culture lysis reagent (Promega, Charbonniere, France) supplemented with protease inhibitor cocktail (Boehringer, Mannheim, Germany) (one tablet for 50 ml). After centrifugation 10 min at 15 000 g and 4° C., tissue lysate supernatant was collected.
as §1, §2
The effect of various chemical agents on the RPE-choroid complex gases injection or electrotransfer-induced intracellular delivery of the naked plasmid pVAX2-Luc and gene expression of the luciferase in neuroretina was evaluated.
Thirty μg of naked pVAX2-Luc in 10 μl in NaCl 0.45% was injected intravitreously in one eye of anaesthetized rats (the contra lateral eye was used as control) immediately followed by gas injection (C2F6 or SF6) or ET application [8×(80V; 20 ms; 5 Hz)] or combination of both. […]
(§4) 7 days after the treatment the animals were sacrificed, the eyes were enucleated and dissected under an optical microscope to isolate the neuroretina and the RPE-choroid complex and the luminescence of the luciferase was measured.

The test system of the next assay is neuroretina. Put plainly: IVT injection of naked pVAX2-Luc followed by gas injection and/or ET, luciferase in neuroretina (Example 1). It counts as in vivo, rat. The conditions noted are these: IVT pre-injection 30 min before plasmid, Indocyanin Green 2.5 mg/ml, Polysorbate 80 0.2 mg/ml. On the procedure:
as §3, with “experiments. […]” for “experiments.”
The luciferase activity was assessed on 10 μl of sample (tissue lysate supernatant or ocular fluid) placed in a white 96 wells plate. […]
The effect of various chemical agents on the RPE-choroid complex gases injection or electrotransfer-induced intracellular delivery of the naked plasmid pVAX2-Luc and gene expression of the luciferase in neuroretina was evaluated. […]
as §4

Setting [1] is: pre-treatment 2 mg/ml (30 μl) 30 min before plasmid.
The mark [2] stands for this setting: pre-treatment 20 mg/ml (30 μl) 30 min before plasmid.

Method for tibialis anterior muscle: Luminescence is expressed in counts/s/ml/mg of protein (cps/ml/mg). The results are expressed as the mean±sem of 3 independent experiments. […] Intramuscular injection in the mouse tibialis anterior muscle was carried out with a 30 G needle on a 300 μl microfine syringe (BD Biosiences). Mouse receiving injection of pVAX2-luc in the tibialis anterior muscle were sacrificed on day 7 after treatment. The tibialis anterior muscle was removed, snap frozen in liquid nitrogen and kept at −80° C. until tested. Tissue samples were then homogenized in 0.3 ml (rat neuroretina and RPE/choroid complex) or 1.0 ml (mouse tibialis anterior muscle) of cell culture lysis reagent (Promega, Charbonniere, France) supplemented with protease inhibitor cocktail (Boehringer, Mannheim, Germany) (one tablet for 50 ml). After centrifugation 10 min at 15 000 g and 4° C., tissue lysate supernatant was collected. The luciferase activity was assessed on 10 μl of sample (tissue lysate supernatant or ocular fluid) placed in a white 96 wells plate. The detector was a Wallac Victor luminometer (EG&G Wallac, Evry, France) which adds 50 μl of luciferase assay substrate or Gaussia luciferase assay substrate (Promega) to the sample (tissue lysate supernatant or ocular fluid respectively) and integrates the light produced by the sample during 10 s. Results are given for the whole sample in counts per second (cps) or in cps/ml/mg of protein. One hundred μg of pVAX1-LacZ or thirty μg of naked pVAX2-Luc in 100 or 30 μl in NaCl 0.45% were, respectively, injected into the tibialis anterior muscle of rats or into the tibialis anterior muscle of mice. In the mice, the plasmid injection was preceded 30 min before by intramuscular injection of 30 μl of triamcinolone acetonide (TA) or dexamethasone (DEX) at 2 or 20 mg/ml, or soluble DEX at 4 mg/ml. Pre-injection with water was performed as control.

As to `CC(=O)OCC(=O)[C@@]1(O)CC[C@H]2[C@@H]3CCC4=CC(=O)CC[C@]4(C)C3=CC[C@@]21C` [AA, anecortave acetate], the “level of expression of Luciferase in the aqueous humor compared to naked plasmid alone” value in the assay with ciliary muscle (pre-injection 20 mg/ml (10 μl) 45 min before 15 μg pGLuc) is listed as “dramatically improve”. Moreover, the “Luciferase (cps) Mean ± sem, level of expression in aqueous humor” value in the assay on ciliary muscle was found to be 122.5 ± 7.2 cps.

Take `C[C@@H]1C[C@H]2[C@@H]3CCC4=CC(=O)C=C[C@]4(C)[C@@]3(F)[C@@H](O)C[C@]2(C)[C@@]1(O)C(=O)CO` [DEX, dexamethasone]: the “Luciferase (cps) means (10^6)” value in the assay with tibialis anterior muscle (setting [1]) was 8.526 10^6 cps; with tibialis anterior muscle (setting [2]) it was 30.13 10^6 cps.

Regarding `CC1(C)C(/C=C/C=C/C=C/C=C2\N(CCCCS(=O)(=O)O)c3ccc4ccccc4c3C2(C)C)=[N+](CCCCS(=O)(=O)[O-])c2ccc3ccccc3c21` [Indocyanin Green, indocyanine green], in the assay on RPE-choroid complex, the “improvement of the efficacy of gases injection, by contrast with KENACORT” value is “less efficient” and the “improvement of the efficiency of ET” value is on record as “improved, in a certain extent”. Also, in the assay on neuroretina, the “efficiency in improving transfection, by contrast with KENACORT” value is listed as “less efficient”.

Turning to `CC1(C)O[C@@H]2C[C@H]3[C@@H]4CCC5=CC(=O)C=C[C@]5(C)[C@@]4(F)[C@@H](O)C[C@]3(C)[C@]2(C(=O)CO)O1` [TA, triamcinolone acetonide], the “Luciferase (cps) Mean ± sem, level of expression in aqueous humor” value in the assay with ciliary muscle was determined as 122.3 ± 6.8 cps. Further, the figures for the “Luciferase (cps) means (10^6)” value in the assay on tibialis anterior muscle (setting [1]) and in the assay with tibialis anterior muscle (setting [2]) were 6.849 10^6 cps and 6.431 10^6 cps, respectively.

In the case of polysorbate 80, in the assay on RPE-choroid complex, the “improvement of the efficacy of gases injection, by contrast with KENACORT” value is “less efficient” and the “improvement of the efficiency of ET” value is “improved, in a certain extent”. For the same compound, in the assay on neuroretina, the “efficiency in improving transfection, by contrast with KENACORT” value was “less efficient”.
